Assay results from patent US8637463B2, “Peptide inhibiting angiotensin converting enzyme” (Meiji Dairies Corporation, priority 2003, dated 2014).
Where a SMILES comes first, the peptide text is derived from it. Where no end group is shown, it is not given here.

Assays:
ACE = ACE (Homo sapiens, UniProt P12821); conditions: known ACE-inhibiting peptides from casein and corn protein α-zein; cited from earlier work
[1] = target: Angiotensin Converting Enzyme (Homo sapiens, UniProt P12821); assay: ACE inhibitory activity with Hippuryl-His-Leu substrate, absorbance at 228 nm; assay type: biochemical
Description: Each of the peptides of SEQ ID NOs:1 to 7 was synthesized using an automatic peptide synthesizer. It was confirmed by reverse phase HPLC that the purity of each of the thus obtained peptides is 95%. Each of these synthetic peptides was dissolved in 0.1 M borate buffer (pH 8.3). Subsequently, 0.1 ml of an enzyme solution (Angiotensin Converting Enzyme: 2 units/ml) and 0.04 ml of each of the sample solutions were mixed therewith, followed by heating to 37° C. A 0.1 ml portion of a substrate solution (Hippuryl-His-Leu; N-Benzoyl-Gly-His-Leu) was added thereto, followed by thorough stirring. After allowing the mixture to react at 37° C. for 60 minutes, the reaction was stopped by adding 0.13 ml of 1 N hydrochloric acid. Then, 0.85 ml of ethyl acetate was added thereto, followed by shaking for 1 minute, and then the mixture was centrifuged at 3,000 rpm for 10 minutes. A 0.7 ml portion of the supernatant was recovered, and the solvent was removed using a centrifugal evaporator (about 30 minutes). The residual matters were dissolved by adding 0.5 ml of distilled water, and the absorbance at a wavelength of 228 nm was measured.
The activity of inhibiting ACE (%) was calculated by the following mathematical expression 1. Activity of inhibiting ACE(%)={(A−B)−(C−D)}/(A−B)×100 Mathematical expression 1
In this connection, A in the expression is absorbance of the control when the enzyme is used, B is the absorbance of the control when the enzyme is not used, C is absorbance of the sample when the enzyme is used, and D is absorbance of the sample when the enzyme is not used. In addition, 0.1 M borate buffer was used in the control instead of the sample solution.
Based on the thus obtained ACE inhibitory activities, IC50 of each peptide was calculated.
ACE inhibitory activities (%) of the 4 peptides, Leu-Met-Ala-Pro (SEQ ID NO:4), Arg-Met-Ala-Pro (SEQ ID NO:5), Met-Ala-Pro-Pro (SEQ ID NO:6) and Arg-Met-Ala-Pro-Pro (SEQ ID NO:7), which have Met-Ala-Pro as a partial structure, were obtained by the same method of Example 2, and their IC50's were calculated.

[2] = peptides having Met-Ala-Pro as a partial structure, same method as Example 2, Table 2
[3] = synthetic peptide, 0.1 M borate buffer pH 8.3, 37° C., 60 minutes, Table 1

Angiotensin Converting Enzyme, sequence (P12821 30-1306, species assumed): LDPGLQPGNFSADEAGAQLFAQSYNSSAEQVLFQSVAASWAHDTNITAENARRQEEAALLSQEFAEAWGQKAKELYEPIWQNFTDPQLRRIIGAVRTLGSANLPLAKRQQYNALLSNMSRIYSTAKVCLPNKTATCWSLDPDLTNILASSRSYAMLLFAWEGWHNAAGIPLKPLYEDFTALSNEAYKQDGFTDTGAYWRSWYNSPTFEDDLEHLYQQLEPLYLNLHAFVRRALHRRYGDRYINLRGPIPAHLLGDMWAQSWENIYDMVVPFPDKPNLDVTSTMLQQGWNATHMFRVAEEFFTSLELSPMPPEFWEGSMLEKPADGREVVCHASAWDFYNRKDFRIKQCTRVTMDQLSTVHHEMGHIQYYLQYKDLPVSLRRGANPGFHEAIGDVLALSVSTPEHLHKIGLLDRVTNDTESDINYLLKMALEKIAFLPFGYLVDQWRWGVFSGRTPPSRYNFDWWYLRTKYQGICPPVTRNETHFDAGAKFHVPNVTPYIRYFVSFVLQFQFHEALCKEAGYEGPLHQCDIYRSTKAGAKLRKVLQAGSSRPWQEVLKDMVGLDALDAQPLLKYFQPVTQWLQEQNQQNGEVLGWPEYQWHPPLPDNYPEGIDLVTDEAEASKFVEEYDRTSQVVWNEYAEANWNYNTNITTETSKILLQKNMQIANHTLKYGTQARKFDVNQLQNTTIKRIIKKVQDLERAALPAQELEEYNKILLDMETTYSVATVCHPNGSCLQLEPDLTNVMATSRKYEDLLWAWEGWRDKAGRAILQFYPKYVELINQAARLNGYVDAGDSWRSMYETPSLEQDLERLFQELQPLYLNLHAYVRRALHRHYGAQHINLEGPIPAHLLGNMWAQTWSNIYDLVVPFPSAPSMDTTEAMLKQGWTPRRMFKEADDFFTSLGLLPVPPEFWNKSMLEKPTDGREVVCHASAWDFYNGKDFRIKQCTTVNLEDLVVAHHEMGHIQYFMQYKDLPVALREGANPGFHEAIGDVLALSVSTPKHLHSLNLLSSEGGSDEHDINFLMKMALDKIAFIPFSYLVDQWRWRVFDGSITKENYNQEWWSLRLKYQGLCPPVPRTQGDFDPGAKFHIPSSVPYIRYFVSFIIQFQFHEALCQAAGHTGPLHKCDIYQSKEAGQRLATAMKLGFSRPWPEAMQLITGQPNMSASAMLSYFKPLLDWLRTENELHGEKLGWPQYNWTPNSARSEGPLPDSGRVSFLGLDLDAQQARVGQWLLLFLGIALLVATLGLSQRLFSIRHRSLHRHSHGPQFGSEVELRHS
ACE, sequence (P12821 30-1306, species assumed): as above

Row | Molecule | IC50 (ACE) [µM] | IC50 [1, 2] [µM] | other results
1 | Ile-Pro-Pro [IPP, casein-derived peptide] | 5 |  | 
2 | Val-Ala-Pro [VAP, casein-derived peptide] | 2 |  | 
3 | Val-Pro-Pro [VPP] | 9 |  | 
4 | CSCC[C@H](NC(=O)[C@@H](N)CC(C)C)C(=O)N[C@@H](C)C(=O)N1CCC[C@H]1C(=O)O [Leu-Met-Ala-Pro] (H-LMAP-OH; N-terminus and C-terminus assumed) |  | 27.9 | 
5 | CC[C@H](C)[C@H](N)C(=O)N[C@@H](Cc1c[nH]cn1)C(=O)N[C@@H](C)C(=O)O [Ile-His-Ala] (H-Ile-His-Ala-OH; N-terminus and C-terminus assumed) |  |  | IC50 [1, 3]: 394 µM
6 | RMAPP [Arg-Met-Ala-Pro-Pro] |  | 255 | 
7 | CSCC[C@H](N)C(=O)N[C@@H](C)C(=O)N1CCC[C@H]1C(=O)N1CCC[C@H]1C(=O)O [Met-Ala-Pro-Pro] (H-MAPP-OH; N-terminus and C-terminus assumed) |  | 28.3 | 
8 | CSCC[C@H](NC(=O)[C@@H](N)CCCNC(=N)N)C(=O)N[C@@H](C)C(=O)N1CCC[C@H]1C(=O)O [Arg-Met-Ala-Pro] (H-RMAP-OH; N-terminus and C-terminus assumed) |  | 24 | 
9 | CC[C@H](C)[C@H](N)C(=O)N[C@@H](CCC(N)=O)C(=O)N[C@@H](C)C(=O)O [Ile-Gln-Ala] (H-Ile-Gln-Ala-OH; N-terminus and C-terminus assumed) |  |  | IC50 [1, 3]: 64.1 µM
10 | Leu-Gln-Pro [LQP, corn protein α-zein-derived peptide] | 2 |  | 
